According to publication PMC9146984, “A Novel Proline-Rich Cathelicidin from the Alpaca Vicugna pacos with Potency to Combat Antibiotic-Resistant Bacteria: Mechanism of Action and the Functional Role of the C-Terminal Region” (Membranes, 2022):
≈ marks a conversion by molar mass, not a printed value. Read-outs that look alike come from different tables or passages of the source. Where a SMILES comes first, the peptide text is derived from it.

Experiments:
[1] = tested on: E. coli BL21 (DE3) Star cell extract, coupled transcription/translation of EGFP; experiment: In vitro transcription/translation inhibition assay (cell-free EGFP synthesis); type: biochemical, Escherichia coli; details: EGFP fluorescence, 2 h, 30 °C; at least two independent experiments in triplicate; read-out: IC50, inhibition of in vitro protein synthesis in the E. coli cell-free system
Method: To investigate the effect of cathelicidins on the coupled transcription/translation process, the peptides were added to a cell-free protein synthesis (CFPS) reaction mix with a plasmid encoding enhanced green fluorescent protein (EGFP) variant (F64L, S65T, Q80R, F99S, M153T, and V163A) under control of the T7 promoter as described previously with some modifications. Briefly, the peptides were dissolved in 0.1% BSA in water. Bac7[1–22] was used as a positive control inhibitor. The fluorescence of the sample without inhibitor was set as the 100% value. The reaction proceeded for 2 h in 96-well v-bottom black polystyrene microplates in a plate shaker (30 °C, 1000 rpm). The fluorescence of the synthesized EGFP was measured with the microplate reader AF2200 (λExc = 488 nm, λEm = 510 nm; Eppendorf, Hamburg, Germany). The experimental data were obtained from at least two independent experiments performed in triplicate. Non-linear regression curves were generated using GraphPad Prism v.8.0.1 (GraphPad Software Inc., San Diego, CA, USA).

E. coli = experiment: Antimicrobial assay (MIC), E. coli strains; type: cell-based, Escherichia coli; details: Mueller–Hinton broth without NaCl
Method: (§1) The reduction of resazurin to resorufin was measured.

[2] = tested on: E. coli ML-35p cytoplasmic membrane; experiment: Cytoplasmic membrane permeabilization (ONPG hydrolysis); type: cell-based, Escherichia coli; details: PBS, 37 °C, OD405, 2.5 mM ONPG; two independent experiments
Method: To examine the ability of the peptides to affect the barrier function of the cytoplasmic bacterial membrane, we slightly modified the previously described procedure with the use of the E. coli ML-35p strain constitutively expressing cytoplasmic β-galactosidase but lacking lactose permease. The state of the E. coli ML-35p inner membrane was assessed based on its permeability to chromogenic marker o-nitrophenyl-β-D-galactopyranoside (ONPG, AppliChem, Darmstadt, Germany), which is the β-galactosidase substrate. The cells were incubated in the trypticase soy broth (TSB) for 16 h at 37 °C, washed three times with phosphate-buffered saline (PBS, pH 7.4) to remove residual growth media, adjusted to the concentration of 2.5 × 10^8 CFU/mL, and stored on ice until used. The assay was performed in PBS as well. The final concentration of E. coli ML-35p cells was 2.5 × 10^7 CFU/mL. The concentration of ONPG was 2.5 mM. Peptide samples were placed in the wells of a 96-well plate with a non-binding surface (NBS, Corning #3641), and the optical density (OD) of the solution rose due to the appearance of o-nitrophenol was measured at 405 nm using a microplate reader AF2200 (Eppendorf, Hamburg, Germany). The final volume in each well was 200 µL. Assays were performed at 37 °C under stirring at 500 rpm. Control experiments were performed under the same conditions without adding a peptide. Two independent experiments were performed, and the curve pattern was similar.

[3] = tested on: human embryonic kidney cells (HEK293T); experiment: Cytotoxicity (MTT assay); type: cell-based; details: HEK293T, 20 h incubation, MTT (Figure 3D)
Method: (§2) Hemolytic activity of the peptides was tested against the fresh suspension of human red blood cells (hRBC) using the hemoglobin release assay as described previously. Two experiments were performed with the hRBC from blood samples of independent donors. The quantitative data were represented as average means with standard deviations. The colorimetric 3-(4,5-dimethylthiazol-2-yl)-2,5-diphenyltetrazolium bromide (MTT) dye reduction assay was used to determine the cytotoxicity of the peptides against transformed human embryonic kidney cells (HEK293T). 10^4 cells per well in Dulbecco’s modified Eagle’s medium (DMEM/F12) supplemented with 10% fetal bovine serum (FBS; Invitrogen, Waltham, MA, USA) were placed into 96-well plates and then cultured in the CO2-incubator (5% CO2, 37 °C). After the media were removed, the peptides were dissolved in 100 µL of the same medium and added to cell cultures at different final concentrations. 20 h later, 20 μL of MTT (5 mg/mL; Sigma, St. Louis, MO, USA) was added to each well, and the plates were incubated for 4 h at 37 °C. Then, the media were discarded and a 100 µL dimethyl sulfoxide-isopropanol mixture at a ratio of 1:1 (v/v) was added to each well to dissolve the crystallized formazan. The absorbance at 570 nm was measured by a microplate reader AF2200 (Eppendorf, Hamburg, Germany). The optical density in the wells containing cells cultured without the peptides was assumed to represent 100% cell viability. Two independent experiments were performed for each peptide.

[4] = tested on: human red blood cells (hRBC); experiment: Hemolysis (hemoglobin release assay); type: cell-based; details: 1.5 h incubation (Figure 3C)
Method: as §2, with “The optical density in the wells containing cells cultured without the peptides was assumed to represent 100% cell viability. Two independent experiments were performed for each peptide.” left out

E. coli BW25113 ΔompF = type: cell-based, Escherichia coli; details: Mueller–Hinton broth, 24 h, 37 °C, median
Method: as §1

E. coli BW25113 = type: cell-based, Escherichia coli; details: BW25113, 24 h
Method: as §1

E. coli BW25113 ΔmdtM = type: cell-based, Escherichia coli; details: Mueller–Hinton broth, 24 h, 37 °C, median
Method: as §1

E. coli ATCC 25922 = type: cell-based, Escherichia coli; details: ATCC 25922, 24 h
Method: as §1

E. coli BW25113 ΔsbmA = type: cell-based, Escherichia coli; details: Mueller–Hinton broth, 24 h, 37 °C, median
Method: as §1

`CC[C@H](C)[C@H](NC(=O)[C@H](CCCNC(=N)N)NC(=O)[C@@H](N)CCCNC(=N)N)C(=O)N[C@@H](CCCNC(=N)N)C(=O)N[C@@H](CCCNC(=N)N)C(=O)N1CCC[C@H]1C(=O)N[C@@H](CCCNC(=N)N)C(=O)N[C@@H](CC(C)C)C(=O)N1CCC[C@H]1C(=O)N[C@@H](CCCNC(=N)N)C(=O)N1CCC[C@H]1C(=O)N[C@@H](CCCNC(=N)N)C(=O)N[C@H](C(=O)N1CCC[C@H]1C(=O)N[C@@H](CCCNC(=N)N)C(=O)N1CCC[C@H]1C(=O)O)C(C)C` [VicBac[1-16]] (H-RRIRRPRLPRPRVPRP-OH) was tested, and the IC50 [1] was ~4 µM and the “killing of E. coli under salt-free conditions” value (E. coli) was 4 to 8 µM.

With Melittin [reference compound] the “effect on E. coli ML-35p cytoplasmic membrane permeability for ONPG” value [2] was “significant damage”, the “concentration at which almost all cells were completely lysed” value [3] was < 4 µM and the “concentration at which almost all cells were completely lysed” value [4] was < 4 µM.

With `CC[C@H](C)[C@H](NC(=O)[C@H](CCCNC(=N)N)NC(=O)[C@@H]1CCCN1C(=O)[C@H](CCCNC(=N)N)NC(=O)[C@@H]1CCCN1C(=O)[C@@H](NC(=O)[C@H](CCCNC(=N)N)NC(=O)[C@@H]1CCCN1C(=O)[C@H](CCCNC(=N)N)NC(=O)[C@@H]1CCCN1C(=O)[C@H](CC(C)C)NC(=O)[C@H](CCCNC(=N)N)NC(=O)[C@@H]1CCCN1C(=O)[C@H](CCCNC(=N)N)NC(=O)[C@H](CCCNC(=N)N)NC(=O)[C@@H](NC(=O)[C@H](CCCNC(=N)N)NC(=O)[C@@H](N)CCCNC(=N)N)[C@@H](C)CC)C(C)C)C(=O)O` [VicBac[1-18]] (H-RRIRRPRLPRPRVPRPRI-OH; N-terminus and C-terminus assumed) the “Minimum inhibitory concentration, E. coli strain ΔompF” value (E. coli BW25113 ΔompF; 0.9% NaCl: +) was 16 µM (≈ 37.6 µg/mL), the “Minimum inhibitory concentration, E. coli strain ΔompF” value (E. coli BW25113 ΔompF; 0.9% NaCl: −) was 8 µM (≈ 18.8 µg/mL) and the “Minimum inhibitory concentration, E. coli strain BW25113” value (E. coli BW25113) was 4 µM (≈ 9.39 µg/mL). The “Minimum inhibitory concentration, E. coli strain ΔmdtM” value (E. coli BW25113 ΔmdtM; 0.9% NaCl: +) was 2 µM (≈ 4.7 µg/mL), the “Minimum inhibitory concentration, E. coli strain ΔmdtM” value (E. coli BW25113 ΔmdtM; 0.9% NaCl: −) was 4 µM (≈ 9.39 µg/mL) and the “Minimum inhibitory concentration, E. coli strain ATCC 25922” value (E. coli ATCC 25922) was 2 µM (≈ 4.7 µg/mL). The “Minimum inhibitory concentration, E. coli strain ΔsbmA” value (E. coli BW25113 ΔsbmA; 0.9% NaCl: +) was > 64 µM and the “Minimum inhibitory concentration, E. coli strain ΔsbmA” value (E. coli BW25113 ΔsbmA; 0.9% NaCl: −) was 4 µM (≈ 9.39 µg/mL).
